1 molecule from BindingDB's records for doi:10.1016/s0960-894x(01)00039-7 (Glaxosmithkline, 2001) can be followed below.

The target of this test is Tyrosine--tRNA ligase (Staphylococcus aureus). Description: Inhibitory activity against Staphylococcus aureus tyrosyl tRNA synthetase (YRS) using aminoacylation assay.

A word on the IC50: it is the concentration at which inhibition is half-maximal. A higher IC50 goes with weaker potency in that assay. For the molecule `N[C@@H](Cc1ccc(O)cc1)C(=O)N[C@@H](C(=O)O)[C@@H]1OC[C@H](O)[C@H](O)[C@H]1O` [[2-Amino-3-((S)-4-hydroxy-phenyl)-propionylamino]-((2S,3R,4S,5S)-3,4,5-trihydroxy-tetrahydro-pyran-2-yl)-acetic acid], half-maximal inhibition (IC50) was put at 0.26 µM.
